Experimental findings from patent US20130252930A1 (BIOMARIN PHARMACEUTICAL INC., priority 2010, published 2013) are described below.

Read-outs that look alike come from different tables or passages of the source.

One data set addresses T1, CYP17 (H295R cells) (Homo sapiens, UniProt P05093).
T1 construct: endogenous in cells; host or cells: H295R cells
T1 sequence (P05093 1-508): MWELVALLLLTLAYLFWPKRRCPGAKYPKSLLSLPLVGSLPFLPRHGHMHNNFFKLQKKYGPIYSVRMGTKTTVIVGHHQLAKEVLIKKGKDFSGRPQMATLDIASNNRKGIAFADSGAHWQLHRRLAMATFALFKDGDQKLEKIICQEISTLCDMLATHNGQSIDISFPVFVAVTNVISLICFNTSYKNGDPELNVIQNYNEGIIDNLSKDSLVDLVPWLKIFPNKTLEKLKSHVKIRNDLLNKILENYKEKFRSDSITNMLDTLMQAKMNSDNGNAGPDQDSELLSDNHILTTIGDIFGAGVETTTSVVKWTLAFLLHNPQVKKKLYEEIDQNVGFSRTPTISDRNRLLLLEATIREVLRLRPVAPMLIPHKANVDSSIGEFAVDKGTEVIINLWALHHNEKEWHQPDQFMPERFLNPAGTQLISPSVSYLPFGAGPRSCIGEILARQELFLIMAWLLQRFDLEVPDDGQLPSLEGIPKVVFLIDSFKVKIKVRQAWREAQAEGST
Put plainly: CYP17 cellular assay (IC50), testosterone in H295R cells (Biological Example 7). The conditions noted are these: H295R cells, testosterone. It is filed as cell-based. The protocol:
The assays were performed in 96-well plates. Typically H295R cells were seeded at 4.5×10^4 cells/well in 100 μL Growth Medium containing DMEM/F-12 (Gibco/Invitrogen; 11330-032), 2.5% Nu-Serum (BD Bioscience; 355100) and ITS (BD Bioscience; 354352), and cultured at 37° C., 5% CO2 for 24 hr. The next day, media were carefully removed and cells were washed twice with 200 μL 1×HBSS++. Test compounds were then added to the cells at 100, 10, 1, 0.1 nM final concentrations in 125 μL volume per well in serum-free media containing DMEM/F-12 and ITS+ Premix (BD Bioscience; 354352) with 0.1% methanol. Serum-free media with 0.1% methanol without test compound was used as control. Cells were incubated with compounds at 37° C. for additional 24 hours, and the cultured media from each compound treated well was harvested for measurement of testosterone concentration by ELISA according to manufacturer's instruction (Assay Design). Testosterone concentration of each sample was plotted vs. the concentration of the test compounds.

Data set [1] in a line: Human liver microsome stability assay (Biological Example 8b). The conditions noted are these: liver microsomes, pH 7.4. Background: Microsomes from liver hold many membrane-bound enzymes, among them those of drug oxidation.
Procedure: The reaction was started with addition of excess NADPH (5 mg/mL, 15 μL in 0.1 M potassium phosphate buffer, 1.0 mM EDTA, pH 7.4), the total volume is 45 μL (compound final concentration was 1 μM). […] 50 μL of the supernatant was transferred from each well into a 96-well sample plate containing 50 μL of ultra-pure water (Millipore) for LC-MS/MS analysis.
Data set [2] concerns the target T2, CYP17 (human testicular microsome) (Homo sapiens, UniProt P05093).
T2 construct: using microsomal fraction from human testis (Celsis Cat #S00110) as the enzyme source; tissue Celsis S00110; host or cells: human testis microsomal fraction
T2 sequence (P05093 1-508): T1 sequence (P05093 1-508)
Nature of the data set: CYP17 enzymatic assay (% inhibition at 1 nM) (Biological Example 12). It is filed as biochemical. The note with it: compound at 1 nM.
Procedure: The assays were performed in 96-well plates. Typical assays were carried out in total 100 μL volume that included test compounds at 1 nM concentration, 1× reaction buffer, 0.5 mM NADPH, 1 μM 17α-hydroxypregnenolone, and 2.5 μL of human testicular microsome (Celsis. Cat #S00110). Reaction without test compound served as a positive control. Reactions were allowed to incubate at 37° C. for 90 min with gentle shaking. The reaction was stopped by directly applying the enzymatic reaction mixture to ELISA plate for evaluation of DHEA concentration according to manufacturer's protocol (IBL America). A standard curve (OD450 vs. DHEA concentration) was generated using purified DHEA. […] Percent inhibition (inhibition %) of the compound was calculated using normalized DHEA concentration based on following formula: 100−([DHEA] of compound/[DHEA] of positive control*100).

Data set [3] addresses T2, CYP17 (human testicular microsome). Put plainly: CYP17 enzymatic assay (IC50) (Biological Example 4). It is filed as biochemical. The conditions noted are these: human testicular microsome.
Setting [4] is: read-out: Biological Example No. 7: CYP17 cellular assay IC50.
[5] abbreviates: read-out: Biological Example No. 12: CYP17 enzymatic assay % inhibition at 1 nM.
[6] abbreviates: read-out: Biological Example No. 4: CYP17 enzymatic assay IC50.
The mark [7] stands for this setting: read-out: CYP17 cellular assay IC50 (Biological Example No. 7).
Setting [8] is: read-out: CYP17 enzymatic assay % inhibition at 1 nM (Biological Example No. 12).

The IC50 is the concentration needed to halve the response being measured. What is called half-life is the time in which the quantity being followed falls by half. Lower therefore signals fast loss. A word on the inhibition: it is the change of the read-out against control, counted positive when it falls. In the case of `C[C@]12CCNC(=O)C=C1CCC1C2CC[C@]2(C)C(c3cncc(C(F)F)c3)=CCC12` (stereo partly drawn) [Compound 386, (5aR,7aS)-8-(5-(difluoromethyl)pyridin-3-yl)-5a,7a-dimethyl-3,4,5,5a,5b,6,7,7a,10,10a,11,12-dodecahydrocyclopenta[5,6]naphtho[1,2-d]azepin-2(10bH)-one], the IC50 on CYP17 (H295R cells) (setting [4]) is < 15 nM; in data set [3] (setting [6]), < 11 nM. For the same molecule, the half-life at 1 μM in data set [1] lay within 1 to 50 min. In addition, the inhibition at 0.001 µM in data set [2] (setting [5]) was > 50%.
Consider `C[C@]12CC[C@H](O)CC1=CCC1C2CC[C@]2(C)C(c3cncc(C(F)F)c3)=CCC12` (stereo partly drawn) [Compound 279, (3S,10R,13S)-17-(5-(difluoromethyl)pyridin-3-yl)-10,13-dimethyl-2,3,4,7,8,9,10,11,12,13,14,15-dodecahydro-1H-cyclopenta[a]phenanthren-3-ol], for which the values for the IC50 (on CYP17 (H295R cells) (setting [4]); in data set [3] (setting [6])) were < 15 nM and < 11 nM, respectively. The half-life at 1 μM in data set [1] is > 50 min. For the same molecule, the inhibition at 0.001 µM in data set [2] (setting [5]) is > 50%.
For the molecule `C[C@]12CCC(F)CC1=CC[C@@H]1[C@@H]2CC[C@]2(C)C(c3cncc(F)c3)=CC[C@@H]12` (stereo partly drawn) [Compound 401, 3-fluoro-5-((10R,13S)-3-fluoro-10,13-dimethyl-2,3,4,7,8,9,10,11,12,13,14,15-dodecahydro-1H-cyclopenta[a]phenanthren-17-yl)pyridine], the results for the IC50 (at CYP17 (H295R cells) (setting [4]); in data set [3] (setting [6])) were < 15 nM and < 11 nM, respectively. Also, the half-life at 1 μM in data set [1] is > 50 min.
In the case of `C[C@]12CC(O)CC1CCC1C2CC[C@]2(C)C(c3cncc(F)c3)=CCC12` (stereo partly drawn) [Compound 398, (3aS,5aS)-6-(5-fluoropyridin-3-yl)-3a,5a-dimethyl-1,2,3,3a,3b,4,5,5a,8,8a,8b,9,10,10a-tetradecahydrodicyclopenta[a,f]naphthalen-2-ol], the concentration for half-maximal inhibition (IC50) on CYP17 (H295R cells) (setting [4]) was < 15 nM; in data set [3] (setting [6]) it was < 11 nM. The half-life at 1 μM in data set [1] is > 50 min. The inhibition at 0.001 µM in data set [2] (setting [5]) lay within 10 to 50%.
Turning to `C[C@]12CC[C@H]3[C@@H](CC=C4C[C@@H](O)CC[C@@]43C)C1=CC=C2c1cncc(F)c1` [Compound 271, (3S,10R,13S)-17-(5-fluoropyridin-3-yl)-10,13-dimethyl-2,3,4,7,8,9,10,11,12,13-decahydro-1H-cyclopenta[a]phenanthren-3-ol], the IC50 on CYP17 (H295R cells) (setting [4]) was < 15 nM; in data set [3] (setting [6]), < 11 nM. In addition, in data set [1], the half-life at 1 μM lay within 1 to 50 min. For the same molecule, the inhibition at 0.001 µM in data set [2] (setting [5]) is > 50%.
As to `CC(=O)N[C@@H]1CC[C@@]2(C)C(=CCC3C4=CC=C(c5cccnc5)[C@@]4(C)CCC32)C1` (stereo partly drawn) [Compound 243, N-((3R,10R,13S)-10,13-dimethyl-17-(pyridin-3-yl)-2,3,4,7,8,9,10,11,12,13-decahydro-1H-cyclopenta[a]phenanthren-3-yl)acetamide], the IC50 on CYP17 (H295R cells) (setting [7]) is < 15 nM. Further, the half-life at 1 μM in data set [1] fell in the range of 1 to 50 min. In data set [2] (setting [8]), the inhibition at 0.001 µM was > 50%.
For `C[C@]12CCC(=O)C=C1C=CC1C2CC[C@]2(C)C(c3cncc(F)c3)=CCC12` (stereo partly drawn) [Compound 409, (10R,13S)-17-(5-fluoropyridin-3-yl)-10,13-dimethyl-8,9,10,11,12,13,14,15-octahydro-1H-cyclopenta[a]phenanthren-3(2H)-one], the 50% inhibitory concentration (IC50) at CYP17 (H295R cells) (setting [4]) was < 15 nM; in data set [3] (setting [6]), < 11 nM. In data set [1], the half-life at 1 μM fell in the range of 1 to 50 min. In data set [2] (setting [5]), the inhibition at 0.001 µM is > 50%.
As to `Cc1ccncc1C1=CC=C2[C@@H]3CC=C4C[C@@H](O)CC[C@]4(C)[C@H]3CC[C@]12C` [Compound 190, (3S,10R,13S)-10,13-dimethyl-17-(4-methylpyridin-3-yl)-2,3,4,7,8,9,10,11,12,13-decahydro-1H-cyclopenta[a]phenanthren-3-ol], the concentration for half-maximal inhibition (IC50) at CYP17 (H295R cells) (setting [7]) lay within 15 to 100 nM. Besides, the half-life at 1 μM in data set [1] is 1 to 50 min. Moreover, in data set [2] (setting [8]), the inhibition at 0.001 µM is > 50%.
For the molecule `CC(C)C(=O)N[C@@H]1CC[C@@]2(C)C(CCC3C2CC[C@]2(C)C(c4cccnc4)=CCC32)C1` (stereo partly drawn) [Compound 216, N-((3R,10S,13S)-10,13-dimethyl-17-(pyridin-3-yl)-2,3,4,5,6,7,8,9,10,11,12,13,14,15-tetradecahydro-1H-cyclopenta[a]phenanthren-3-yl)isobutyramide], the half-inhibitory concentration (IC50) on CYP17 (H295R cells) (setting [7]) is < 15 nM. The same molecule showed a half-life at 1 μM in data set [1] of 1 to 50 min. Further, in data set [2] (setting [8]), the inhibition at 0.001 µM is > 50%.
Take `C[C@]12CC[C@H]3[C@@H](CC4CC45C[C@@H](O)CC[C@]35C)[C@@H]1CC=C2c1cccnc1` (single isomer, unassigned) [Compound 317]: the values for the IC50 (at CYP17 (H295R cells) (setting [4]); in data set [3] (setting [6])) were < 15 nM and < 11 nM, respectively. In data set [1], this molecule yielded a half-life at 1 μM of 1 to 50 min. Besides, the inhibition at 0.001 µM in data set [2] (setting [5]) is > 50%.
As for `C[C@]12CCC(=O)C=C1C1CC1[C@@H]1[C@@H]2CC[C@]2(C)C(c3cncc(F)c3)=CC[C@@H]12` (stereo partly drawn) [Compound 330, (4aR,6aS)-7-(5-fluoropyridin-3-yl)-4a,6a-dimethyl-4,4a,4b,5,6,6a,9,9a,9b,9c,10,10a-dodecahydrocyclopenta[a]cyclopropa[l]phenanthren-2(3H)-one], the IC50 at CYP17 (H295R cells) (setting [4]) is < 15 nM; in data set [3] (setting [6]) it was < 11 nM. This molecule also registered a half-life at 1 μM in data set [1] of 1 to 50 min. For the same molecule, in data set [2] (setting [5]), the inhibition at 0.001 µM is > 50%.
Regarding `CC(=O)N[C@@H]1CC[C@@]2(C)C(=CCC3C2CC[C@]2(C)C(c4cccnc4)=CCC32)C1` (stereo partly drawn) [Compound 223, N-((3R,10R,13S)-10,13-dimethyl-17-(pyridin-3-yl)-2,3,4,7,8,9,10,11,12,13,14,15-dodecahydro-1H-cyclopenta[a]phenanthren-3-yl)acetamide], the values for the IC50 (on CYP17 (H295R cells) (setting [7]); in data set [3] (read-out: CYP17 enzymatic assay IC50 (Biological Example No. 4))) were < 15 nM and < 11 nM, respectively. In addition, the half-life at 1 μM in data set [1] lay within 1 to 50 min. In data set [2] (setting [8]), the inhibition at 0.001 µM is > 50%.
Consider `C[C@]12CCC3C(CC(F)C4(O)C[C@@H](O)CC[C@]34C)C1CC=C2c1cncc(F)c1` (stereo partly drawn) [Compound 321, (3S,10R,13S)-6-fluoro-17-(5-fluoropyridin-3-yl)-10,13-dimethyl-2,3,4,5,6,7,8,9,10,11,12,13,14,15-tetradecahydro-1H-cyclopenta[a]phenanthrene-3,5-diol], for which the values for the IC50 (at CYP17 (H295R cells) (setting [4]); in data set [3] (setting [6])) were < 15 nM and < 11 nM, respectively. Besides, in data set [1], the half-life at 1 μM was in the range of 1 to 50 min. For the same molecule, the inhibition at 0.001 µM in data set [2] (setting [5]) is > 50%.
`CC(=O)N[C@@H]1CC[C@@]2(C)C(CCC3C2CC[C@]2(C)C(c4cnccc4C)=CCC32)C1` (stereo partly drawn) [Compound 21, N-((3R,10S,13S)-10,13-dimethyl-17-(4-methylpyridin-3-yl)-2,3,4,5,6,7,8,9,10,11,12,13,14,15-tetradecahydro-1H-cyclopenta[a]phenanthren-3-yl)acetamide]: the IC50 at CYP17 (H295R cells) (setting [7]) is < 15 nM. The half-life at 1 μM in data set [1] was in the range of 1 to 50 min. In data set [2] (setting [8]), the inhibition at 0.001 µM is > 50%.
In the case of `C[C@]12CC(O)CC1CCC1C2CC[C@]2(C)C(c3cccnc3)=CCC12` (stereo partly drawn) [Compound 399, (3aS,5aS)-3a,5a-dimethyl-6-(pyridin-3-yl)-1,2,3,3a,3b,4,5,5a,8,8a,8b,9,10,10a-tetradecahydrodicyclopenta[a,f]naphthalen-2-ol], the values for the half-maximal inhibitory concentration (IC50) (on CYP17 (H295R cells) (setting [4]); in data set [3] (setting [6])) were < 15 nM and < 11 nM, respectively. The same molecule displayed a half-life at 1 μM in data set [1] of 1 to 50 min. Further, the inhibition at 0.001 µM in data set [2] (setting [5]) was > 50%.
`C[C@]1(O)CC[C@@]2(C)C(CCC3C2CC[C@]2(C)C(c4cncc(F)c4)=CCC32)C1` (stereo partly drawn) [Compound 264, (3S,10S,13S)-17-(5-fluoropyridin-3-yl)-3,10,13-trimethyl-2,3,4,5,6,7,8,9,10,11,12,13,14,15-tetradecahydro-1H-cyclopenta[a]phenanthren-3-ol]: the IC50 on CYP17 (H295R cells) (setting [4]) is < 15 nM; in data set [3] (setting [6]), < 11 nM. In data set [1], this molecule registered a half-life at 1 μM of 1 to 50 min.
